The results in this text go back to PMC10324058 (ACS Omega, 2023).

For the assay, the target named is α-glucosidase enzyme (Saccharomyces cerevisiae, UniProt P53341). Put plainly: Kinetic study against α-glucosidase. It is filed as biochemical, S. cerevisiae.
Sequence of α-glucosidase enzyme (P53341 whole entry): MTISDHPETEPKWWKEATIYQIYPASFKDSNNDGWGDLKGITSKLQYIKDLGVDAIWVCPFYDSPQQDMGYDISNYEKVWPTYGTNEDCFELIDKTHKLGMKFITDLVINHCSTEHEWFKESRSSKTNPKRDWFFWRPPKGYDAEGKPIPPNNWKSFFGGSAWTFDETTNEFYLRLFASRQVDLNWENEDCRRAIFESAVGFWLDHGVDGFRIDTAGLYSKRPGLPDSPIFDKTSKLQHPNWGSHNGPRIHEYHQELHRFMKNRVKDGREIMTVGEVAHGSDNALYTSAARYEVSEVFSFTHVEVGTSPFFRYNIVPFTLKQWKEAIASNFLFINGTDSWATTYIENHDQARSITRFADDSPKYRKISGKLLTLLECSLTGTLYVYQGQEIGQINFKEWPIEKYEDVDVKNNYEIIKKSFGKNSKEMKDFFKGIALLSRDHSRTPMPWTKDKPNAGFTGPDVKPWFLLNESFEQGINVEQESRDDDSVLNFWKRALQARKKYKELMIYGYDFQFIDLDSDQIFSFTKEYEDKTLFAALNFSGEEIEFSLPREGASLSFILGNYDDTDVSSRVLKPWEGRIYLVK

The term Ki denotes the dissociation constant of the complex between target and ligand, obtained from inhibition or displacement. Low readings indicate a stronger hold on the target, high ones a looser hold on the target. As to `N#CC1=C(N)Oc2c(c(=O)[nH]c3ccccc23)C1c1cccc(OCc2cn(Cc3ccccc3)nn2)c1` (centres unmarked) [8k, 2-Amino-4-(3-((1-benzyl-1H-1,2,3-triazol-4-yl)methoxy)phenyl)-5-oxo-5,6-dihydro-4H-pyrano[3,2-c]quinoline-3-carbonitrile], the Ki turned out to be 1300 nM. Besides, the inhibition mode entry (Lineweaver–Burk plot: Km increased, Vmax unchanged) is “competitive inhibitor”.
